According to patent US9365508B2, “Aroyl thiourea derivatives” (University Court of the University of St Andrews, priority 2009, dated 2016):
Structures can show the parent of a compound that is named as a salt.

Key:
SIRT1 = SIRT1 (Homo sapiens (Human), UniProt Q96EB6); test: SIRT1 inhibition assay (Fluor de Lys fluorescence-based assay kit); type: biochemical; conditions: human recombinant enzyme; for inhibition at 60 µM: 60 μM compound, read-out: SirT1 (% inhib at 60 μM)
Method: (§1) SIRT1 and SIRT2 Inhibition Assays
(§2) All compounds were tested for inhibition of SIRT1 and SIRT2 using human recombinant enzymes available in the Fluor de Lys fluorescence-based assay kit (BIOMOL, AK555, AK556). All other required reagents were provided in the kit which was stored at −78° C. Before use, small aliquots of each enzyme (2-3 μL) were prepared, snap frozen in liquid nitrogen and stored at −78° C. Fresh dilutions of compounds were prepared in DMSO and further diluted in assay buffer. NAD^+ (12.5 […] at 4 mM) and Fluor de Lys SIRT1 or SIRT2 (12.5 μL at 100 μM) in assay buffer were added to a white 96 well plate, followed by compound (10 μL) and lastly enzyme (15 μL, 0.07 U/μL or SIRT1 and 0.3 U/μL for SIRT2). After incubation for 1 h at 37° C. a developer solution (50 μL) was added to each reaction. The developer solution contained 38 μL buffer, 10 μL developer and 2 μL nicotinamide (50 mM) per reaction. The plate was then incubated for 45 min at rt and then read using a Spectra Max Gemini fluorimeter with an excitation wavelength of 355 nm and an emission wavelength of 460 nm. SigmaPlot software was used to generate fit curves for raw plots and the equation for each curve was used to calculate IC50 data.

SIRT2 = SIRT2 (Homo sapiens (Human), UniProt Q8IXJ6); test: SIRT2 inhibition assay (Fluor de Lys fluorescence-based assay kit); type: biochemical; conditions: human recombinant enzyme; for inhibition at 60 µM: 60 μM compound, read-out: SirT2 (% inhib at 60 μM)
Sequence of SIRT2 (Q8IXJ6 whole entry): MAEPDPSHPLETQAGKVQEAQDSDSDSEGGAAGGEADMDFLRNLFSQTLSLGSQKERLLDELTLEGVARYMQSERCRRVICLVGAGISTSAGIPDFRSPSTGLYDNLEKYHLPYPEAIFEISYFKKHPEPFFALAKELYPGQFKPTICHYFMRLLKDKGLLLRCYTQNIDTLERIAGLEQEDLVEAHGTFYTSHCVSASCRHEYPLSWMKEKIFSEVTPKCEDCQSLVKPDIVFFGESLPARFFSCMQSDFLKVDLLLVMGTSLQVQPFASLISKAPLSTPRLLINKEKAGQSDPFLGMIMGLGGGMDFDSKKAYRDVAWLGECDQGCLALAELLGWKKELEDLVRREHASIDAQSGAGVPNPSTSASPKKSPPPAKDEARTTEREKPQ
Method: as §1, §2

3T3L1 cells = test: Adipocyte differentiation assay (ORO red lipid staining); type: cell-based, mouse; conditions: 10 μM compound, 3T3L1 cells in the 8 media, in duplicate, versus controls with and without DMSO
Method: Adipocyte Differentiation Assay
3T3L1 cells (i.e. mouse fibroblasts that differentiate into adipocytes in so-called differentiation medium) were treated in a low glucose differentiation medium (as described by F Wang and Q Tong (Molecular Biology of the Cell, 20, 2009, 801-808) with either (i) a normal growth medium (DMEM), (ii) a low glucose differentiation medium containing ciglitazone, d-biotin, dexamethasone, IBMX, insulin and L-thyroxine, or a (iii) a low glucose differentiation medium as per (ii) but lacking one of the components (i.e 6 different media each comprising five components selected from ciglitazone, d-biotin, dexamethasone, IBMX, insulin and L-thyroxine). Cells were stained with ORO red to detect lipid.
The same differentiation assays with each of the 8 differentiation media were then repeated but with addition of DMSO solvent and also 10 μM of compound D3 (5-dimethylamino-pentanoic acid {4-[3-(3,5-dichloro-4-methoxy-benzoyl)-thioureido]-phenyl}-amide hydrochloride) in duplicate.

Sequence of SIRT1 (Q96EB6 whole entry): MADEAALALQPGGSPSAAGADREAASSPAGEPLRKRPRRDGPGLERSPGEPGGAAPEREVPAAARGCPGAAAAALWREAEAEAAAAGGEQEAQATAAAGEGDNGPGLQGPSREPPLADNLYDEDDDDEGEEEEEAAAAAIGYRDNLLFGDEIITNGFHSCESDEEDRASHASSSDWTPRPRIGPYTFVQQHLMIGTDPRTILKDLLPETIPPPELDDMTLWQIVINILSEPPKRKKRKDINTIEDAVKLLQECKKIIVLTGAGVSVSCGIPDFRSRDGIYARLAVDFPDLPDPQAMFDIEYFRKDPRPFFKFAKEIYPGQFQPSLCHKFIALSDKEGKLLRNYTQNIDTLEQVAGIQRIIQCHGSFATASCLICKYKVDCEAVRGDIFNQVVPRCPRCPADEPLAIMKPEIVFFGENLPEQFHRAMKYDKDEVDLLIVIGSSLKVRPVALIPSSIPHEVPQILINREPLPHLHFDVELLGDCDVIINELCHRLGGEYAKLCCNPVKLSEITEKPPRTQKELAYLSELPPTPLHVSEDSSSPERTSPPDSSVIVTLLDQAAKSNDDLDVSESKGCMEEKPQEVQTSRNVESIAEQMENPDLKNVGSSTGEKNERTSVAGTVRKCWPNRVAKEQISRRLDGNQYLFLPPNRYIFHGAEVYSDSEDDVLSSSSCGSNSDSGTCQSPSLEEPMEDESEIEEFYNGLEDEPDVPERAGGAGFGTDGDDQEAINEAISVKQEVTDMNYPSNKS

Row | SMILES | inhibition at 60 µM (SIRT1) [%] | inhibition at 60 µM (SIRT2) [%] | IC50 (SIRT1) [µM] | IC50 (SIRT2) [µM] | oro red staining (adipogenesis) (3T3L1 cells)
1 | Cc1ccc(C(=O)NC(=S)Nc2ccc(NC(=O)CCCCN(C)C)cc2)cc1C [Compound C4, 5-Dimethylamino-pentanoic acid {4-[3-(3,4-dimethyl-benzoyl)-thioureido]-phenyl}-amide hydrochloride] | 27.5 | 65.1 | – | – | –
2 | Cc1cc(C(=O)NC(=S)Nc2ccc(NC(=O)CCCCN(C)C)cc2)ccc1Br [Compound C5, 5-Dimethylamino-pentanoic acid {4-[3-(4-bromo-3-methyl-benzoyl)-thioureido]-phenyl}-amide hydrochloride] | 24 | 77.1 | 69.6 ± 0.6 | 34.3 ± 7.2 | –
3 | COc1ccc(C(=O)NC(=S)Nc2ccc(NC(=O)CCCCN(C)C)cc2)cc1C(F)(F)F [Compound C6, 5-Dimethylamino-pentanoic acid {4-[3-(4-methoxy-3-trifluoromethyl-benzoyl)-thioureido]-phenyl}-amide hydrochloride] | 58.3 | 29.5 | 51.7 ± 6.9 | > 90 | –
4 | CN(C)CCCCC(=O)Nc1ccc(NC(=S)NC(=O)c2cc(F)c(F)c(F)c2)cc1 [Compound D1, 5-Dimethylamino-pentanoic acid {4-[3-(3,4,5-trifluoro-benzoyl)-thioureido]-phenyl}-amide hydrochloride] | 7.5 | 46 | > 90 | 52.5 ± 12.3 | –
5 | COc1c(Cl)cc(C(=O)NC(=S)Nc2ccc(NC(=O)CCCCN(C)C)cc2)cc1Cl.Cl [Compound D3, 5-Dimethylamino-pentanoic acid {4-[3-(3,5-dichloro-4-methoxy-benzoyl)-thioureido]-phenyl}-amide hydrochloride] | 35 | 80.3 | 62.5 ± 3.6 | 10.7 ± 1.6 | increases the oro red staining
